Data reported in PubChem BioAssay AID1259411 (Chemical Carcinogenesis Research Information System (CCRIS), 2018).
Active and inactive are the calls of the source. How the calls were made is not given here.

System: rodent carcinogenicity bioassays, tumor incidence
Test: CCRIS carcinogenicity studies
Outline: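 NCI-built, expert-reviewed records of carcinogenicity and related test outcomes (mutagenicity, tumor promotion/inhibition) compiled from published and report sources, historical span 1985-2011, not updated.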

COc1cc(-c2ccc(N)c(OC)c2)ccc1N
carcinogen call (Species: HAMSTER, Route: ORAL, Tumor Site: Type of Lesion: FORESTOMACH): active; positive
carcinogen call (Species: MOUSE, Strain/Sex: BALB/FEMALE, Route: ORAL, Dose: 0, 20, 40, 80, 160, 315, 630 PPM IN DRINKING WATER (STUDY DURATION: 112 WK), Dose: 0, 20, 40, 80, 160, 315, 630 PPM IN DRINKING WATER (STUDY DURATION: 112 WK)): inactive; negative
carcinogen call (Species: MOUSE, Strain/Sex: BALB/MALE, Route: ORAL, Dose: 0, 20, 40, 80, 160, 315, 630 PPM IN DRINKING WATER (STUDY DURATION: 112 WK), Dose: 0, 20, 40, 80, 160, 315, 630 PPM IN DRINKING WATER (STUDY DURATION: 112 WK)): inactive; negative
carcinogen call (Species: RAT, Route: ORAL, Tumor Site: Type of Lesion: EAR (ZYMBAL GLAND), URINARY BLADDER, INTESTINES, INTEGUMENTARY SYSTEM (SKIN), Tumor Site: Type of Lesion: EAR (ZYMBAL GLAND), URINARY BLADDER, INTESTINES, INTEGUMENTARY SYSTEM (SKIN)): active; positive
carcinogen call (Species: RAT, Strain/Sex: F344/FEMALE, Route: ORAL, Dose: 0, 80, 170, 330 PPM IN DRINKING WATER FOR 21 MO ( STUDY DURATION: 93 WK), Dose: 0, 80, 170, 330 PPM IN DRINKING WATER FOR 21 MO ( STUDY DURATION: 93 WK), Tumor Site: Type of Lesion: CLITORAL GLAND: ADENOMA OR CARCINOMA, LARGE INTESTINE: ADENOMATOUS POLYP OR ADENOCARCINOMA, LIVER: NEOPLASTIC NODULE OR, Tumor Site: Type of Lesion: CLITORAL GLAND: ADENOMA OR CARCINOMA, LARGE INTESTINE: ADENOMATOUS POLYP OR ADENOCARCINOMA, LIVER: NEOPLASTIC NODULE OR): active; positive
carcinogen call (Species: RAT, Strain/Sex: F344/FEMALE, Route: ORAL, Dose: 0, 80, 170, 330 PPM IN DRINKING WATER FOR 21 MO (STUDY DURATION: 21 MO), Dose: 0, 80, 170, 330 PPM IN DRINKING WATER FOR 21 MO (STUDY DURATION: 21 MO), Tumor Site: Type of Lesion: ZYMBAL GLAND: ADENOMA, CARCINOMA, CLITORAL GLAND: ADENOMA, CARCINOMA, LARGE INTESTINE: ADENOMATOUS POLYP OR ADENOCARCINO, Tumor Site: Type of Lesion: ZYMBAL GLAND: ADENOMA, CARCINOMA, CLITORAL GLAND: ADENOMA, CARCINOMA, LARGE INTESTINE: ADENOMATOUS POLYP OR ADENOCARCINO): active; positive
carcinogen call (Species: RAT, Strain/Sex: F344/MALE, Route: ORAL, Dose: 0, 80, 170, 330 PPM IN DRINKING WATER FOR 21 MO (STUDY DURATION: 21 MO), Dose: 0, 80, 170, 330 PPM IN DRINKING WATER FOR 21 MO (STUDY DURATION: 21 MO), Tumor Site: Type of Lesion: ZYMBAL GLAND: ADENOMA, CARCINOMA, PREPUTIAL GLAND: CARCINOMA, SKIN: BASAL CELL ADENOMA, BASAL CELL CARCINOMA, SQUAMOUS C, Tumor Site: Type of Lesion: ZYMBAL GLAND: ADENOMA, CARCINOMA, PREPUTIAL GLAND: CARCINOMA, SKIN: BASAL CELL ADENOMA, BASAL CELL CARCINOMA, SQUAMOUS C): active; positive
carcinogen call (Species: RAT, Strain/Sex: F344/MALE, Route: ORAL, Dose: 0, 80, 170, 330 PPM IN DRINKING WATER FOR 21 MO (STUDY DURATION: 93 WK), Dose: 0, 80, 170, 330 PPM IN DRINKING WATER FOR 21 MO (STUDY DURATION: 93 WK), Tumor Site: Type of Lesion: BRAIN: MALIGNANT ASTROCYTOMA, PREPUTIAL GLAND: CARCINOMA, ADENOMA OR CARCINOMA, LARGE INTESTINE: ADENOMATOUS POLYP OR AD, Tumor Site: Type of Lesion: BRAIN: MALIGNANT ASTROCYTOMA, PREPUTIAL GLAND: CARCINOMA, ADENOMA OR CARCINOMA, LARGE INTESTINE: ADENOMATOUS POLYP OR AD): active; positive

O=CC(=O)C[C@H](O)[C@H](O)CO
carcinogen call (Species: MOUSE, Strain/Sex: CD-1/FEMALE, Route: DERMAL, Dose: 0, 20 UMOL/0.1 ML DMSO 2/WK FOR 5 WK FOLLOWED 1 WK LATER BY 0.1 ML ACETONE 2/WK FOR 47 WK (STUDY DURATION: 52 WK)): inactive; negative

ClC1=C(Cl)C2(Cl)C3C(Cl)C(Cl)CC3C1(Cl)C2(Cl)Cl (stereo unspecified)
carcinogen call (Species: MOUSE, Strain/Sex: C57B1/MALE, Route: ORAL, Dose: 0, 50 PPM IN DIET FOR 24 MO (STUDY DURATION: 24 MO), Tumor Site: Type of Lesion: LIVER: ADENOMA OR CARCINOMA): active; positive
carcinogen call (Species: MOUSE, Strain/Sex: ICR/FEMALE, Route: ORAL, Dose: 0, 1, 5, 12.5 PPM IN DIET FOR 104 WK (STUDY DURATION: 104 WK), Dose: 0, 1, 5, 12.5 PPM IN DIET FOR 104 WK (STUDY DURATION: 104 WK)): inactive; negative
carcinogen call (Species: MOUSE, Strain/Sex: ICR/MALE, Route: ORAL, Dose: 0, 1, 5, 12.5 PPM IN DIET FOR 104 WK (STUDY DURATION: 104 WK), Dose: 0, 1, 5, 12.5 PPM IN DIET FOR 104 WK (STUDY DURATION: 104 WK), Tumor Site: Type of Lesion: LIVER: ADENOMA, HEMANGIOMA): active; positive
carcinogen call (Species: RAT, Strain/Sex: F344/FEMALE, Route: ORAL, Dose: 0, 1, 5, 25 PPM IN DIET FOR 130 WK (STUDY DURATION: 130 WK), Dose: 0, 1, 5, 25 PPM IN DIET FOR 130 WK (STUDY DURATION: 130 WK), Tumor Site: Type of Lesion: MAMMARY GLAND: FIBROADENOMA): active; positive
carcinogen call (Species: RAT, Strain/Sex: F344/MALE, Route: ORAL, Dose: 0, 1, 5, 25 PPM IN DIET FOR 130 WK (STUDY DURATION: 130 WK), Dose: 0, 1, 5, 25 PPM IN DIET FOR 130 WK (STUDY DURATION: 130 WK), Tumor Site: Type of Lesion: LIVER: NODULE): active; positive

O=Nc1ccc(NO)cc1
carcinogen call (Species: MOUSE, Strain/Sex: B6C3F1/FEMALE, Route: ORAL, Dose: 0, 750, 1500 PPM IN DIET FOR 104 WK (STUDY DURATION: 105 WK), Dose: 0, 750, 1500 PPM IN DIET FOR 104 WK (STUDY DURATION: 105 WK)): inactive; negative
carcinogen call (Species: MOUSE, Strain/Sex: B6C3F1/MALE, Route: ORAL, Dose: 0, 750, 1500 PPM IN DIET FOR 104 WK (STUDY DURATION: 105 WK), Dose: 0, 750, 1500 PPM IN DIET FOR 104 WK (STUDY DURATION: 105 WK)): inactive; negative
carcinogen call (Species: RAT, Strain/Sex: F344/FEMALE, Route: ORAL, Dose: 0, 375, 750 PPM IN DIET FOR 104 WK (STUDY DURATION: 105 WK), Dose: 0, 375, 750 PPM IN DIET FOR 104 WK (STUDY DURATION: 105 WK), Tumor Site: Type of Lesion: URINARY BLADDER: TRANSITIONAL CELL CARCINOMA, TRANSITIONAL CELL PAPILLOMA OR SQUAMOUS CELL CARCINOMA): active; positive
carcinogen call (Species: RAT, Strain/Sex: F344/MALE, Route: ORAL, Dose: 0, 375, 750 PPM IN DIET FOR 104 WK (STUDY DURATION: 105 WK), Dose: 0, 375, 750 PPM IN DIET FOR 104 WK (STUDY DURATION: 105 WK)): inactive; negative

O=[N+]([O-])c1ccc2c3c1ccc1cccc(c13)[C@@H]1O[C@H]21
carcinogen call (Species: MOUSE, Strain/Sex: B6C3F1/FEMALE, Route: INTRAPERITONEAL, Dose: 0, 7 NMOL (TOTAL DOSE), 1/7, 2/7 AND 4/7 OF THE TOTAL DOSE ADMINISTERED WITHIN 24 HR OF BIRTH AND AT 8 AND 15 D OF AGE): inactive; negative
carcinogen call (Species: MOUSE, Strain/Sex: B6C3F1/MALE, Route: INTRAPERITONEAL, Dose: 0, 7 NMOL (TOTAL DOSE), 1/7, 2/7 AND 4/7 OF THE TOTAL DOSE ADMINISTERED WITHIN 24 HR OF BIRTH AND AT 8 AND 15 D OF AGE): inactive; negative

CCCCN(COC(C)=O)N=O
carcinogen call (Species: RAT, Strain/Sex: F344/FEMALE, Route: SUBCUTANEOUS, Dose: 6.6 MG/KG 1/WK FOR 10 WK, Tumor Site: Type of Lesion: INJECTION SITE: MALIGNANT FIBROUS HISTIOCYTOMA): active; positive
carcinogen call (Species: RAT, Strain/Sex: F344/MALE, Route: SUBCUTANEOUS, Dose: 6.6 MG/KG 1/WK FOR 10 WK, Tumor Site: Type of Lesion: INJECTION SITE: MALIGNANT FIBROUS HISTIOCYTOMA, LUNG: ADENOMA OR ADENOCARCINOMA OR SQUAMOUS CELL CARCINOMA): active; positive

C[C@@H]1CCC[C@H](C)N1CCC[C@@](O)(c1ccccc1)c1ccccn1
carcinogen call (Species: MOUSE, Strain/Sex: B6C3F1/FEMALE, Route: ORAL, Dose: 0, 10, 25, 50 MG/KG/D IN DIET FOR 104 WK (STUDY DURATION: 104 WK), Dose: 0, 10, 25, 50 MG/KG/D IN DIET FOR 104 WK (STUDY DURATION: 104 WK)): inactive; negative
carcinogen call (Species: MOUSE, Strain/Sex: B6C3F1/MALE, Route: ORAL, Dose: 0, 10, 25, 50 MG/KG/D IN DIET FOR 104 WK (STUDY DURATION: 104 WK), Dose: 0, 10, 25, 50 MG/KG/D IN DIET FOR 104 WK (STUDY DURATION: 104 WK)): inactive; negative
carcinogen call (Species: RAT, Strain/Sex: WISTAR/FEMALE, Route: ORAL, Dose: 0, 10, 25, 50 MG/KG/D IN DIET FOR 104 WK (STUDY DURATION: 104 WK), Dose: 0, 10, 25, 50 MG/KG/D IN DIET FOR 104 WK (STUDY DURATION: 104 WK)): inactive; negative
carcinogen call (Species: RAT, Strain/Sex: WISTAR/MALE, Route: ORAL, Dose: 0, 10, 25, 50 MG/KG/D IN DIET FOR 104 WK (STUDY DURATION: 104 WK), Dose: 0, 10, 25, 50 MG/KG/D IN DIET FOR 104 WK (STUDY DURATION: 104 WK)): inactive; negative
